Results reported in patent US12139477B2, “Compounds, salts thereof and methods for treatment of diseases” (ACADIA PHARMACEUTICALS INC., priority 2017, dated 2024).

Assays:
[1] = target: T1, Nav1.5 sodium ion channel (alpha subunit) (Homo sapiens, UniProt Q14524); assay: NaV1.5 whole cell recordings, HEK293 (AVIVA; for ACP-201, ACP-203 and ACP-204); assay type: cell-based; settings: manual patch clamp; step to 0 mV; AVIVA method for ACP-201, ACP-203, ACP-204; read-out: NaV 1.5 IC50
T1 construct: host or cells: HEK293 cells
T1 sequence (Q14524 whole entry): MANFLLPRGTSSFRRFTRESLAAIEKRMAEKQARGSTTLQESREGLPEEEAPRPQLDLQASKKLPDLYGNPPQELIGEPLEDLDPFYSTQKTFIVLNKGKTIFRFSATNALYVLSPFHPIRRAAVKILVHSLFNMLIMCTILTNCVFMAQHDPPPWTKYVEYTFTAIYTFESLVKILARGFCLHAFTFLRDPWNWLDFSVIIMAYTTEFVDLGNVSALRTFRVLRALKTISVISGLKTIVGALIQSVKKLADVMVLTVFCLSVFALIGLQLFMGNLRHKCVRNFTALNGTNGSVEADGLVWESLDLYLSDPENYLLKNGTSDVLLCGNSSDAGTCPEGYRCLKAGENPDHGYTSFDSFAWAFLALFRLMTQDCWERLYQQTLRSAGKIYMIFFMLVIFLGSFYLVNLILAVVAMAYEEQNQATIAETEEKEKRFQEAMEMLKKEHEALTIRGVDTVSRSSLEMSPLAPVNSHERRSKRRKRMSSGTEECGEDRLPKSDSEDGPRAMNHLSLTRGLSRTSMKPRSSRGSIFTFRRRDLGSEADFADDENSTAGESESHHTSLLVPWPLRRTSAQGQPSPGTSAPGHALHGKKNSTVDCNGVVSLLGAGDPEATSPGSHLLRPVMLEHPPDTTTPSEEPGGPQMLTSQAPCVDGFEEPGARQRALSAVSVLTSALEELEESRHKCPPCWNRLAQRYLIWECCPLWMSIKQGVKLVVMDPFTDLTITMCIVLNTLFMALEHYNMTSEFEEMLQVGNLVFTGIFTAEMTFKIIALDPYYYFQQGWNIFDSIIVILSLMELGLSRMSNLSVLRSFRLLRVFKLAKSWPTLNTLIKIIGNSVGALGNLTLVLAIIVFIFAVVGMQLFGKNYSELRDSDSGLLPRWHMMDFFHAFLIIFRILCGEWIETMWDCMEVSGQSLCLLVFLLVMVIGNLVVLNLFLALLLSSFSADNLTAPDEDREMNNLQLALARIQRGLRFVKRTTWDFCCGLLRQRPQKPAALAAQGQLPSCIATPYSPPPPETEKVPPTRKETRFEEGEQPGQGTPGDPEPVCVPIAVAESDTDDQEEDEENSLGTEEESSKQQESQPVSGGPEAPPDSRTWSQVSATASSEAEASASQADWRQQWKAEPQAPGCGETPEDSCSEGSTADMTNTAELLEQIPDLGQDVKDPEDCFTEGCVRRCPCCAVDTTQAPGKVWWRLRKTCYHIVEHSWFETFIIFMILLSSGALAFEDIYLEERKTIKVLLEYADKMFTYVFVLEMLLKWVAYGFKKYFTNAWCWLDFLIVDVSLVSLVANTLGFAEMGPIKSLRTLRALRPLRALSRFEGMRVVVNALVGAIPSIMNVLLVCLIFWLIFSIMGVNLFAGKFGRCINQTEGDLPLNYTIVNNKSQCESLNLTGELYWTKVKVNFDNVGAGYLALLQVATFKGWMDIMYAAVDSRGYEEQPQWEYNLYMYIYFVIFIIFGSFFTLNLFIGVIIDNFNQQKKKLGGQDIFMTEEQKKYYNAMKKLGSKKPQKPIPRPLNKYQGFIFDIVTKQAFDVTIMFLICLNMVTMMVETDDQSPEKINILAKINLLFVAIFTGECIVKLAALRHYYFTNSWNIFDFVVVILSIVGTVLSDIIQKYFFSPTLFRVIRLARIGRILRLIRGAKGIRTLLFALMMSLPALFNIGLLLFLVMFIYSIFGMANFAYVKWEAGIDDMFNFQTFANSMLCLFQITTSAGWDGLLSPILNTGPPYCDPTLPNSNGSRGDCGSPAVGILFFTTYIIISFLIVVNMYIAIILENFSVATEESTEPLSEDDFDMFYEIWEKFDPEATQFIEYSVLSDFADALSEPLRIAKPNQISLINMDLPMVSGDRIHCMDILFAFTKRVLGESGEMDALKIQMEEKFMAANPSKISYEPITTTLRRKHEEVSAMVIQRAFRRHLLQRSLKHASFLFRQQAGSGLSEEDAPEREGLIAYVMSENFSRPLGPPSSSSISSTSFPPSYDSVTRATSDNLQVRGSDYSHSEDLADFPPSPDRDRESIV
Protocol: NaV1.5 methods (for ACP-201, ACP-203 and ACP-204): These experiments were carried out at AVIVA Biosciences Corporation, 6330 Nancy Ridge Drive, Suite 103, San Diego, CA 92121.
Cells: HEK293 cells transfected with Nav1.5 sodium ion channel (alpha subunit) were selected for this study. Cells were cultured in DMEM/F12 containing 10% FBS, 500 μg/mL G418 and 1% penicillin/streptomycin. Trypsin (0.05%) was utilized for cell harvesting.
External Solution: 90 mM NaCl; 50 mM TEA; 10 mM HEPES; 10 mM glucose; 4 mM KCl; 2 mM CaCl2); 305-315 mOsm; pH 7.4 (adjusted with 5M NaOH).
Internal Solution: 140 mM CsF; 10 mM NaCl; 1 mM MgCl2; 10 mM HEPES; 5 mM EGTA; 295-305 mOsm; pH 7.4 (adjusted with 1M NaOH).
Electrophysiology: All whole cell recordings were performed using PX 7000A (Axon Instruments) with AVIVA's […] technology. To achieve stable recordings, cells were voltage clamped at a holding potential 20 mV more negative than steady state half inactivation potential (Vh=V1/2−20 mV). V1/2 was determined by a pre-step from −130 mV to −40 MV for 1000 ms followed by a −10 mV step. V1/2 was determined independently for each cell to correct for both electrode potential and liquid junction potential offsets.
Test Article Handling and Dilutions: All test articles were prepared from 10 mM DMSO stock solutions. Solutions were mixed by sonication for 20 min, followed by vigorous vortexing. Prior to testing, compounds were diluted to test concentrations in glass vials using External Solution. Dilutions were prepared no longer than 20 min prior to use.
Electrophysiology Procedures: After achieving whole cell configuration, cells were monitored for 90 s to assess stability and then washed with External Solution for 66 s. for each cell achieving whole-cell access, an IV curve and steady state inactivation curve was measured. […] Whole cell parameters were monitored throughout the recoding procedure and corrected for any possible access resistance or input capacitance change (whole-cell compensation). […]

hERG potassium channel = hERG potassium channel (Homo sapiens, UniProt Q12809); assay: hERG manual patch clamp, HEK293 cells (CR-CLE)
Chain of hERG potassium channel (Q12809 whole entry): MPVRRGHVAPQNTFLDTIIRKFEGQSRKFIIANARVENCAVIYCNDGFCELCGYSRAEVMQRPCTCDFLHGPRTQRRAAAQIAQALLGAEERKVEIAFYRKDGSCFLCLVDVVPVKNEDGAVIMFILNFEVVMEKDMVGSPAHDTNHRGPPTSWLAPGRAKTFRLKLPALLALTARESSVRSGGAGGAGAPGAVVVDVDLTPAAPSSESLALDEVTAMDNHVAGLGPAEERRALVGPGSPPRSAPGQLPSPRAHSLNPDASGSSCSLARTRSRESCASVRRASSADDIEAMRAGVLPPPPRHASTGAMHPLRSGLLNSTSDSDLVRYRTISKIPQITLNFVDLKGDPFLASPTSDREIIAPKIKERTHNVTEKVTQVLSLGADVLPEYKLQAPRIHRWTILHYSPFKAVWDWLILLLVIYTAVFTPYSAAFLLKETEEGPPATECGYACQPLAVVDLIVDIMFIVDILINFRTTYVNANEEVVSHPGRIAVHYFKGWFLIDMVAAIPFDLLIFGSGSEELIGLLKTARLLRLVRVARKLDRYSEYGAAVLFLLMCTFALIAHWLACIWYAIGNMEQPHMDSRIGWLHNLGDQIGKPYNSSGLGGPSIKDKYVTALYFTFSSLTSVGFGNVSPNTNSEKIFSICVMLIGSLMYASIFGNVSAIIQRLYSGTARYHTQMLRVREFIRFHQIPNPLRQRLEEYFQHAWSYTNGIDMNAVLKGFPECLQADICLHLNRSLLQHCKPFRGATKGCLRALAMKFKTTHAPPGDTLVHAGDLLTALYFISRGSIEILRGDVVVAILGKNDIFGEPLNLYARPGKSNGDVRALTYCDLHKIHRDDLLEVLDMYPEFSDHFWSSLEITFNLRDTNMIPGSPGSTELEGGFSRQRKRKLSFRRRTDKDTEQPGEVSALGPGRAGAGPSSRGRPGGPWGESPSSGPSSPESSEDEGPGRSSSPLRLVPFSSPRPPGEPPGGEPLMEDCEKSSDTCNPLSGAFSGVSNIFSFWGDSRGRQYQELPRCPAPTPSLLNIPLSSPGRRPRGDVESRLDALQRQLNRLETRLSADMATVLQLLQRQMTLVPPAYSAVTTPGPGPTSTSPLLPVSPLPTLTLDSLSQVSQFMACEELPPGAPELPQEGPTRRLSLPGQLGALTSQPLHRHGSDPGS
Protocol: Each cell acted as its own control.
Temperature was measured using a thermistor probe in the recording chamber.

5HT2A = 5HT2A (Homo sapiens, UniProt P28223); assay: Receptor Selection and Amplification (R-SAT) functional assay; assay type: cell-based; set-up: expressed in transfected cells; host or cells: NIH3T3 cells, pSI mammalian expression vector; settings: NIH3T3 cells; Ki from IC50 by Cheng and Prussoff; read-out: 5-HT2a (pKi) (R-SAT) (converted)
Chain of 5HT2A (P28223 whole entry): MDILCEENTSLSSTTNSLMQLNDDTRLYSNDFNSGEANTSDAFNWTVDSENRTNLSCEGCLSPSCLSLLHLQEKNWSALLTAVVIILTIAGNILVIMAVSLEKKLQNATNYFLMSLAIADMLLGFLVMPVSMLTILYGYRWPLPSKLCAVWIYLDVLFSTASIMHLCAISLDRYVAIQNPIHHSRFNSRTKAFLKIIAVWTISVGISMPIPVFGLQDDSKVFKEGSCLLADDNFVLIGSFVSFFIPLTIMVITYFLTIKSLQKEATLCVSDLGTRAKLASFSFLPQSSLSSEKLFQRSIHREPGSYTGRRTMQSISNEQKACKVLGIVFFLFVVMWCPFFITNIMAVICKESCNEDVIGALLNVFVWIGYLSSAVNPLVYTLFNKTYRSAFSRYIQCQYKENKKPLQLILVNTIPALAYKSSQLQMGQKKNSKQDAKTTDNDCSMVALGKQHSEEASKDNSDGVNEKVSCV
From the text: Receptor Selection and Amplification (R-SAT) Assays. […] The IC50 determined in the RSAT assay was converted into a Ki value using the method of Cheng and Prussoff, Biochem Pharmacol., 1973 Dec. 1; 22(23):3099-108. pKi is the negative of the log(Ki).

| Ki (5HT2A) | SMILES | IC50 [1] | IC50 (hERG potassium channel) |
| --- | --- | --- | --- |
| 1.26 nM | CC(C)COc1ccc(CNC(=O)N(Cc2ccc(F)cc2F)C2CCN(C)CC2)cc1 [Example 3, 1-[(2,4-difluorophenyl)methyl]-1-(1-methylpiperidin-4-yl)-3-{[4-(2-methylpropoxy)phenyl]methyl}urea] | 4200 nM | 500 nM |
| 1 nM | CC(C)Oc1ccc(CNC(=O)N(Cc2ccc(F)cc2F)C2CCN(C)CC2)cc1 [Example 5, 1-[(2,4-difluorophenyl)methyl]-1-(1-methylpiperidin-4-yl)-3-{[4-(propan-2-yloxy)phenyl]methyl}urea] | > 10000 nM | 1800 nM |
| 0.398 nM | CN1CCC(N(Cc2ccc(F)cc2F)C(=O)NCc2ccc(OC3CC3)cc2)CC1 [Example 17, 3-[(4-cyclopropoxyphenyl)methyl]-1-[(2,4-difluorophenyl)methyl]-1-(1-methylpiperidin-4-yl)urea] | > 10000 nM | 1800 nM |
